Test results published in patent US11076595B2, “1-(n,n-disubstituted carbamoyl) 4-(substituted sulfonyl)triazolin-5-one derivative, 4-(n,n-disubstituted carbamoyl) 1-(substituted sulfonyl)triazolin-5-one derivative, and herbicide containing said derivative as active ingredient” (HOKKO CHEMICAL INDUSTRY CO., LTD., priority 2017, dated 2021).

Experiments:
Type in all cases: in vivo
Scirpus juncoides [1] = experiment: Test Example 11: herbicidal effect test by soil treatment in paddy field; settings: 120 g/10a active ingredient, 14 days after treatment
Outline: (§1)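 Puddled paddy soil with N:P:K 17:17:17 fertilizer in Wagner pots; 30 seeds per species sown at 0–1 cm, flooded to about 3 cm, kept in a glass greenhouse. Water-diluted emulsifiable concentrate dripped in immediately after sowing at 120 g a.i. per 10 are. Suppression from dry weight versus untreated at 14 days.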

Echinochloa crus-galli [2] = experiment: as above; settings: 120 g/10a active ingredient, 14 days after treatment
Outline: as §1

Monochoria vaginalis [3] = experiment: as above; settings: 120 g/10a active ingredient, 14 days after treatment
Outline: as §1

Lindernia pyxidaria [4] = experiment: as above; settings: 120 g/10a active ingredient, 14 days after treatment
Outline: as §1

Scirpus juncoides [5] = experiment: Test Example 12: herbicidal effect test by treatment during growing period in paddy field; settings: 120 g/10a; treatment seven days after sowing in flooded paddy pot; assessed 14 days after treatment
Outline: (§2)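 Puddled paddy soil in Wagner pots, 30 seeds per species sown 0-1 cm deep, flooded to about 3 cm in a greenhouse. Seven days after sowing, water-diluted emulsifiable concentrate was dripped in at 120 g active ingredient per 10 are. Suppression (%) from dry weight versus untreated at 14 days, two replicates.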

Echinochloa crus-galli [6] = experiment: as above; settings: 120 g/10a; treatment seven days after sowing in flooded paddy pot; assessed 14 days after treatment
Outline: as §2

Monochoria vaginalis [7] = experiment: as above; settings: 120 g/10a; treatment seven days after sowing in flooded paddy pot; assessed 14 days after treatment
Outline: as §2

Lindernia pyxidaria [8] = experiment: as above; settings: 120 g/10a; treatment seven days after sowing in flooded paddy pot; assessed 14 days after treatment
Outline: as §2

Compound	Weed suppression rate (%) Scirpus juncoides (Scirpus juncoides [1])	Weed suppression rate (%) Echinochloa crus-galli (Echinochloa crus-galli [2])	Weed suppression rate (%) Monochoria vaginalis (Monochoria vaginalis [3])	Weed suppression rate (%) Lindemia pyxidaria (Lindernia pyxidaria [4])	Weed suppression rate (%) Scirpus juncoides (Scirpus juncoides [5])	Weed suppression rate (%) Echinochloa crus-galli (Echinochloa crus-galli [6])	Weed suppression rate (%) Monochoria vaginalis (Monochoria vaginalis [7])	Weed suppression rate (%) Lindemia pyxidaria (Lindernia pyxidaria [8])
Cc1ccc(S(=O)(=O)n2ncn(C(=O)N(c3ccc(Cl)cc3F)C(C)C)c2=O)cc1 [Compound 11-645]	90%	100%	90%	90%	60%	60%	90%	90%
Cc1ccc(S(=O)(=O)n2ncn(C(=O)N(c3ccc(C)cc3F)C(C)C)c2=O)cc1 [Compound 11-651]	90%	90%	90%	90%	90%	90%	80%	80%
CC(C)N(C(=O)n1cnn(S(=O)(=O)c2ccc(C(C)(C)C)cc2)c1=O)c1ccccc1F [Compound 11-672]	90%	90%	80%	80%	90%	90%	80%	80%
CC(C)N(C(=O)n1cnn(S(=O)(=O)c2ccc(C(C)(C)C)cc2)c1=O)c1cccc(F)c1F [Compound 11-681]	100%	100%	80%	90%	100%	100%	100%	90%
CC(C)N(C(=O)n1cnn(S(=O)(=O)c2ccc(C(C)(C)C)cc2)c1=O)c1ccc(F)c(F)c1F [Compound 11-685]	60%	90%	100%	100%	60%	80%	70%	60%
CC(C)N(C(=O)n1cnn(S(=O)(=O)c2ccc(C(C)(C)C)cc2)c1=O)c1c(F)c(F)cc(F)c1F [Compound 11-687]	90%	80%	100%	100%	70%	100%	80%	70%
CC(C)N(C(=O)n1cnn(S(=O)(=O)c2ccc(C(C)(C)C)cc2)c1=O)c1ccc(F)cc1Cl [Compound 11-689]	70%	90%	70%	90%	90%	60%	80%	70%
CC(C)N(C(=O)n1cnn(S(=O)(=O)c2ccc(C(C)(C)C)cc2)c1=O)c1ccc(Cl)cc1Br [Compound 11-694]	70%	90%	70%	80%	80%	70%	70%	60%
Cc1ccc(N(C(=O)n2cnn(S(=O)(=O)c3ccc(C(C)(C)C)cc3)c2=O)C(C)C)c(F)c1 [Compound 11-696]	90%	90%	80%	80%	90%	90%	80%	80%
Cc1ccc(N(C(=O)n2cnn(S(=O)(=O)c3cccc(C(F)(F)F)c3)c2=O)C(C)C)c(F)c1 [Compound 11-737]	90%	90%	80%	80%	90%	90%	80%	80%
CC(C)N(C(=O)n1cnn(S(=O)(=O)c2c(F)cccc2F)c1=O)c1cccc(F)c1F [Compound 11-772]	80%	100%	80%	90%	90%	100%	90%	70%
CC(C)N(C(=O)n1cnn(S(=O)(=O)c2c(F)cccc2F)c1=O)c1c(F)cc(F)cc1F [Compound 11-777]	100%	100%	80%	90%	70%	90%	80%	70%
CC(C)N(C(=O)n1cnn(S(=O)(=O)c2c(F)c(F)c(F)c(F)c2F)c1=O)c1ccccc1F [Compound 11-801]	90%	90%	90%	90%	60%	90%	80%	60%
Cc1ccc(N(C(=O)n2cnn(S(=O)(=O)c3c(F)c(F)c(F)c(F)c3F)c2=O)C(C)C)c(F)c1 [Compound 11-825]	90%	90%	80%	80%	90%	90%	80%	80%
Cc1cc(C)c(S(=O)(=O)n2ncn(C(=O)N(c3ccccc3F)C(C)C)c2=O)c(C)c1 [Compound 11-853]	90%	100%	80%	90%	90%	90%	80%	80%
Cc1cc(C)c(S(=O)(=O)n2ncn(C(=O)N(c3cccc(F)c3)C(C)C)c2=O)c(C)c1 [Compound 11-854]	90%	100%	80%	90%	80%	80%	90%	90%
